Test: Ability to form liquid crystal, water-invading method
Assay type: physicochemical
Conditions: polarization microscope, compared with conventional MEL, FIGS. 10 and 11
Excerpt: Evaluation of the ability to form liquid crystals can be made by a conventional and publicly known method. An example of the method for easily comparing the ability to form liquid crystals is a water invading method. In this method, MEL is applied on a slide glass and distilled water is dropped beside the applied area, and a liquid crystal phase formed at an interface by dropping of the distilled water is observed by a microscope. Thus, behavior of liquid crystal formation can be searched. With the method, it is possible to easily compare the conventional MEL with the MEL optical isomer of the present invention in terms of their abilities to form liquid crystals.
MEL produced by Pseudozyma tsukubaensis JCM 10324 strain obtained in Example 8 and conventional MEL produced by Pseudozyma antarctica KM-34 (FERMP-20730) strain were compared with each other by a water-invading method in terms of their abilities to form liquid crystal.

## 1-(6′-acetyl-2′,3′-di-O-alka(ke)noyl-β-D-mannnopyranosyl-)meso-erythritol
  ability to form liquid crystal (lamella phase): has an ability to form lamella phase in a very wider concentration range than conventional MEL
